Experimental findings from the supplement of paper PMC10307832 are described below.

Assay in all cases: relative viability (nuclei count vs DMSO), 5 days (fraction); higher = more cells survive
Compound in the experiment “AT-7519 + Pictilisib”: O=C(NC1CCNCC1)c1n[nH]cc1NC(=O)c1c(Cl)cccc1Cl [AT-7519] + CS(=O)(=O)N1CCN(Cc2cc3nc(-c4cccc5[nH]ncc45)nc(N4CCOCC4)c3s2)CC1 [Pictilisib] (partner 1 µM)
The essentials: (§1)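 Relative viability divides the nuclei count in treated wells by that in vehicle wells. Lung cancer cell lines were seeded in 1536-well plates, dosed by pin tool the next day, and fixed and stained after 5 days in one step with final 0.05% Triton X-100, 1% formaldehyde and 1 ug/ml Hoechst. Dosing was a single drug or a fixed anchor-drug dose plus five library-drug doses (not always all listed) in √10 steps, and values are medians of duplicate plates imaged at 4×.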

Compound in the experiment “AT-7519 + Crizotinib”: O=C(NC1CCNCC1)c1n[nH]cc1NC(=O)c1c(Cl)cccc1Cl [AT-7519] + C[C@@H](Oc1cc(-c2cnn(C3CCNCC3)c2)cnc1N)c1c(Cl)ccc(F)c1Cl [Crizotinib] (partner 1 µM)
The gist of the method:
as §1

Compound in experiment [1]: C1=CC2=C(C=C(C(=C2N=C1)O)N=NC3=CC4=C(C=C3)C=C(C=C4)S(=O)(=O)O)S(=O)(=O)O + COc1cc2c(Oc3ccc(NC(=O)C4(C(=O)Nc5ccc(F)cc5)CC4)cc3F)ccnc2cc1OCCCN1CCOCC1 [Foretinib] (partner 0.25 µM)
The gist of the method: as §1

Compound in the experiment “AT-7519 + Linsitinib”: O=C(NC1CCNCC1)c1n[nH]cc1NC(=O)c1c(Cl)cccc1Cl [AT-7519] + C[C@]1(O)C[C@@H](c2nc(-c3ccc4ccc(-c5ccccc5)nc4c3)c3c(N)nccn32)C1 [Linsitinib] (partner 1 µM)
The gist of the method:
as §1

As to UMC-11, the relative viability with AT-7519 + Pictilisib (first compound 0.01 µM) was found to be 0.787; with AT-7519 + Pictilisib (first compound 0.03162 µM) it was 0.814; in the experiment with AT-7519 + Pictilisib (first compound 0.3162 µM), 0.417; with AT-7519 + Pictilisib (first compound 1 µM), 0.249; in the experiment with AT-7519 + Crizotinib (first compound 0.01 µM) it was 0.677; with AT-7519 + Crizotinib (first compound 0.03162 µM), 0.539. The relative viability with AT-7519 + Crizotinib (first compound 0.3162 µM) was found to be 0.302; in the experiment with AT-7519 + Crizotinib (first compound 1 µM), 0.13; in experiment [1] (first compound 0.08 µM), 1.13; in experiment [1] (first compound 0.253 µM), 1.04; in experiment [1] (first compound 0.8 µM), 0.938; in experiment [1] (first compound 2.53 µM), 1.05. For the same cell line, the relative viability in experiment [1] (first compound 8 µM) was determined as 1.01; with AT-7519 + Linsitinib (first compound 0.01 µM), 1.17; in the experiment with AT-7519 + Linsitinib (first compound 0.03162 µM), 0.89; in the experiment with AT-7519 + Linsitinib (first compound 0.3162 µM), 0.767; with AT-7519 + Linsitinib (first compound 1 µM), 0.344.
